ChEMBL document CHEMBL1221222, “Analysis of the eukaryotic prenylome by isoprenoid affinity tagging” (Nat Chem Biol, 2009)
Active and inactive are the calls of the source. The calls are words filed in the database; no cut-off is given here.

How the values were obtained:
[1] = test system: COS-7; assay: Inhibition of RabGGTase in african green monkey COS7 cells assessed as Rab prenylation up to 50 uM by Western blot analysis; type: cell-based
[2] = test system: COS-7; assay: Inhibition of FTase in african green monkey COS7 cells assessed as protein prenylation at 100 uM by Western blot analysis; type: cell-based
[3] = test system: COS-7; assay: Inhibition of FTase in african green monkey COS7 cells assessed as protein prenylation at 15 uM by Western blot analysis; type: cell-based
[4] = test system: COS-7; assay: Inhibition of GGTase-1 in african green monkey COS7 cells assessed as protein prenylation at >5 uM by Western blot analysis; type: cell-based
[5] = test system: COS-7; assay: Inhibition of RabGGTase in african green monkey COS7 cells assessed as Rab prenylation by Western blot analysis; type: cell-based
[6] = test system: Protein farnesyltransferase subunit beta (Homo sapiens), P49356 [W102T,Y154T,Y205T]; assay: Binding affinity to FTase W102T/Y154T/Y205T mutant assessed as prenylation of dansyl-labeled GCVLL by fluorescence based assay
[7] = test system: Geranylgeranyl transferase type-1 subunit beta (Homo sapiens), P53609 [F52Y,F53Y,Y126T]; assay: Binding affinity to GGTase-1 F52Y/F53Y/Y126T mutant assessed as prenylation of dansyl-labeled GCVLS by fluorescence based assay
[8] = test system: Protein farnesyltransferase subunit beta (Homo sapiens), P49356 [W102T,Y154T,Y205T]; assay: Binding affinity at FTase W102T/Y154T/Y205T mutant assessed as prenylation of dansyl-labeled GCVLS by fluorescence based assay
[9] = test system: Geranylgeranyl transferase type-1 subunit beta (Homo sapiens), P53609 [F52Y,F53Y,Y126T]; assay: Binding affinity to GGTase-1 F52Y/F53Y/Y126T mutant assessed as prenylation of dansyl-labeled GCVLL by fluorescence based assay

Protein farnesyltransferase subunit beta (Homo sapiens), P49356 [W102T,Y154T,Y205T], sequence (P49356 whole entry W102T/Y154T/Y205T): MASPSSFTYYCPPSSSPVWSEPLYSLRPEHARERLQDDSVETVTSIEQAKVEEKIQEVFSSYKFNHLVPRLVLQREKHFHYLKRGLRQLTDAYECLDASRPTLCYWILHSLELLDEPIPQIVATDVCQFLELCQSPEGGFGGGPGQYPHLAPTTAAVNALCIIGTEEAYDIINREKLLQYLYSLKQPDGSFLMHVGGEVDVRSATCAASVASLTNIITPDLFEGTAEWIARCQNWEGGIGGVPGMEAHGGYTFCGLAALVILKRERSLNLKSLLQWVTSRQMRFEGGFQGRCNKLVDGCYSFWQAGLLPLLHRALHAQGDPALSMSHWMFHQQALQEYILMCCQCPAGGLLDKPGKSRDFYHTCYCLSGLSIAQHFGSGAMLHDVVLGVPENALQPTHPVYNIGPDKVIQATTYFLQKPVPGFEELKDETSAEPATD
Geranylgeranyl transferase type-1 subunit beta (Homo sapiens), P53609 [F52Y,F53Y,Y126T], sequence (P53609 whole entry F52Y/F53Y/Y126T): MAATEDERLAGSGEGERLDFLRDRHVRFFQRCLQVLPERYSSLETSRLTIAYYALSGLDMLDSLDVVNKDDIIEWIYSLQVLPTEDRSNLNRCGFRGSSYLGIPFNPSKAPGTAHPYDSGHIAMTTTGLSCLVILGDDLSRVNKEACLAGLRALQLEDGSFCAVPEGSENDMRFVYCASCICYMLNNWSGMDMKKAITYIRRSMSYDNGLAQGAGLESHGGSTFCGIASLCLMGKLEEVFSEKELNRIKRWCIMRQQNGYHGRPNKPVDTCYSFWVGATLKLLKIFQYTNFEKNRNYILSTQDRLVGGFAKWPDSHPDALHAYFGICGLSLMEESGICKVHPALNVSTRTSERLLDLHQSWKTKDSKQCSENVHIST

CCCCCCS[C@H]1[C@@H](C(=O)O)[C@H](c2ccc(Br)cc2)N(S(=O)(=O)c2ccc(C)cc2)[C@@H]1CCC
inhibition [1]: inactive

CCCCCCS[C@H]1[C@@H](C(=O)O)[C@H](c2ccc(Br)cc2)N(S(=O)(=O)c2ccc(C)cc2)[C@@H]1CCCCCC
inhibition [1]: inactive

CCC[C@@H]1[C@@H](Sc2ccc(OC)cc2)[C@@H](C(=O)O)[C@H](c2ccc(Br)cc2)N1S(=O)(=O)c1ccc(C)cc1
inhibition [1]: inactive

CSCC[C@H](NC(=O)[C@H](Cc1ccccc1)NC[C@@H](NC[C@@H](N)CS)C(C)C)C(=O)O
inhibition [2]: inactive

COC(=O)[C@H](CC(C)C)NC(=O)c1ccc(NC[C@@H](N)CS)cc1-c1cccc2ccccc12
inhibition [3]: Active | inhibition [4]: Active | inhibition [5]: inactive

CC(C)=CCC/C(C)=C/CC/C(C)=C/CC/C(C)=C/COP(=O)(O)OP(=O)(O)O
Activity [6]: inactive | Activity [7]: inactive | Activity [8]: inactive | Activity [9]: inactive
